In patent US5919631A, “Method of determining the degree of aggregation of the β-A4 peptide” (Hoechst Marion Roussel, Inc., priority 1996, dated 1999):
Where two headings read alike, the source gives them in different places.

Biological target: β-amyloid (βA4) peptide (Homo sapiens, UniProt P05067)
Conditions: 37° C.; for percent decrease in aggregation of β-amyloid: 25 μM β-amyloid; for percent decrease in aggregation of β-amyloid / percentage of increase of aggregation: 48 hours
Method: β-amyloid (also known as (βA-4) peptide was dissolved in 100% dimethylsulfoxide (DMSO) at 10 mg/ml (or 2500 μM) concentration. The resultant solution was diluted to 1 mg/ml (or 250 μM) stock in Phosphate Buffered Saline (PBS), pH 7.4, just prior to setting up the assay and dispensed in individual sample wells of a Corning 96-well plate at 16 μl per well (i.e. a final concentration of 25 μM). All treatments were done in triplicate.
In this example, the candidate compound was added to the test wells at three different concentrations (250 μM, 500 μM and 1 mM). Total volume in each well was brought up to 160 μl with PBS. For untreated control wells, no compound was added to the β-amyloid peptide, and the total volume was made to 160 μl with PBS. The plates were sealed with parafilm and incubated at 37° C. for 48 hours.
(§1) At the end of the incubation period, the plates were taken out and 25 μl of Bio-Rad protein assay dye reagent (Bradford dye) was added to all the wells with samples. A standard curve was also set up at this time for estimation of fresh (also considered as unaggregared) peptide absorbance. The dye was mixed by pipeting and the plates quickly spun at 2500 rpm to remove bubbles.
The Absorbance was read at 595 nm in a Dynatech MR5000 plate reader 15 minutes after adding the dye.
The procedure of Example 1 was repeated except that hydrogen peroxide (10 μl of 30% stock) was added to the wells in a 96-well plate with 16 μl of the 1 mg/ml β-amyloid stock. The final volume was then brought up to 160 μl by adding 134 μl of PBS to these wells. The plate was sealed and incubated at 37° C. for 48 hours.
as §1, with “samples as in Example 1.” for “samples.”, “again used” for “also set up at this time”, “unaggregated)” for “unaggregared)”
The absorbance was read at 595 nm in the Dynatech MR5000 plate reader 15 minutes after adding the dye. The amount of aggregation was estimated by subtracting background and taking the difference between the fresh and hydrogen peroxide treated β-amyloid readings. The difference was expressed as percent over fresh or unaggregated peptide.

Chain of β-amyloid (βA4) peptide (P05067 672-713 limits assumed): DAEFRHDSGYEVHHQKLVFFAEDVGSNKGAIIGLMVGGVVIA

Molecule: OO [hydrogen peroxide]
- percentage of aggregation (difference between fresh and treated β-amyloid, percent over fresh peptide) (10 μl of 30% stock in 160 μl, after 48 hrs): 97.7%

Molecule: CCCn1cnc2c1c(=O)n(CCCCC(C)=O)c(=O)n2C [propentofylline, 1-(5'-oxohexyl)-3-methyl-7-propyl-2,6-(1H,3H)-purinedione]
- percent decrease in aggregation of β-amyloid (500 μM compound): 29.68%
- percent decrease in aggregation of β-amyloid (1 mM compound): 37.4%

Molecule: pentosan polysulfate
- percentage of increase of aggregation (0.5 μM compound): 40.8%
- percentage of increase of aggregation (5 μM compound): 57.1%
- percentage of increase of aggregation (50 μM compound): 62.9%
